Laboratory results: US20200190101A1, “Composition Containing Novel Glutamic Acid Derivative And Block Copolymer, And Use Thereof” (Nippon Kayaku Kabushiki Kaisha, priority 2015, published 2020)
Structures can show the parent of a compound that is named as a salt. Where two headings read alike, the source gives them in different places.

Columns and labels:
[1] = test system: OS-RC-2 cells having high GGT activity; assay: cells; format: cell-based, human; conditions: OS-RC-2 cells, 6 hours exposure then 3 days incubation
Description: (§1) After the cells were incubated for 6 hours, the interior of the wells was washed, and after the cells were further incubated for 3 days, the cells were immobilized with methanol and stained using Methylene Blue dye. After staining, the dye was extracted with a 0.3% aqueous solution of hydrochloric acid was extracted, and the light absorbance at 660 nm was measured. For the light absorbance thus obtained, the cell proliferation suppressive activity was evaluated based on the reduction ratio for the light absorbance measured from cells to which the compound was not added.
(§2) By a similar operation, the cell proliferation suppressive activity was evaluated from the light absorbance, using doxorubicin that was not converted to a glutamic acid derivative. The results are shown in FIG. 1 (OS-RC-2 cells having high GGT activity) and FIG. 2 (SK-OV-3 cells having low GGT activity).
(§3) The cell proliferation inhibitory activity of the EHC-bonded glutamic acid derivative according to Synthesis Example 6 was evaluated using OS-RC-2 cells (RIKEN BioResource Center), which are known to have high GGT activity, and SK-OV-3 cells (American Type Culture Collection), which are known to have low GGT activity.
(§4) On a 96-well plate, OS-RC-2 cells having high GGT activity and SK-OV-3 cells having low GGT activity were each inoculated in an amount of 4,000 cells/well and were incubated for one day at 37° C. and 5% CO2, and then the EHC prodrug according to Synthesis Example 6 was added to the cells at a final concentration of 0.0001 to 1 μM. After the cells were incubated for 6 hours, the interior of the wells was washed, and the cells were further incubated for 3 days. After the incubation, the cells were immobilized with methanol and were stained using Methylene Blue dye. After staining, the dye was extracted with a 0.3% aqueous solution of hydrochloric acid, and the light absorbance at 660 nm was measured. The cell proliferation suppressive activity was evaluated based on the reduction ratio for the light absorbance thus obtained, with respect to the light absorbance measured from cells to which the compound was not added.
(§5) By a similar operation, EHC, which was an active ingredient of Synthesis Example 6, was used without modification, and the cell proliferation suppressive activity was evaluated from the light absorbance.

[2] = test system: SK-OV-3 cells having low GGT activity; assay: cells; format: cell-based; conditions: SK-OV-3 cells, 6 hours exposure then 3 days incubation
Description: as §1, §2, §3, §4, §5

[3] = test system: OS-RC-2 cells having high GGT activity; format: cell-based, human; conditions: GGsTop 10 μM
Description: OS-RC-2 cells were inoculated by a method similar to that of Test Example 3. […] After the cells were incubated for 6 hours, the interior of the wells was washed, and after the cells were further incubated for 3 days, the cell proliferation suppressive activity was evaluated by a method similar to that of Test Example 3.
By a similar operation, the cell proliferation suppressive activity was evaluated using doxorubicin that was not glutamic acid-derivatized, from the light absorbance of the compound.
The GGT activity dependency of the cell proliferation inhibitory activity of the EHC-bonded glutamic acid derivative according to Synthesis Example 6 was evaluated using OS-RC-2 cells having high GGT activity.
OS-RC-2 cells were inoculated by a method similar to that of Test Example 10. After the cells were incubated for one day, GGsTop (Wako Pure Chemical Industries, Ltd.), which is a GGT inhibitor, was added to the cells at a final concentration of 10 μM, and the cells were incubated for one hour. Subsequently, the EHC-bonded glutamic acid derivative according to Synthesis Example 6 was added to the cells at a final concentration of 0.0001 to 1 μM. After the cells were incubated for 6 hours, the interior of the wells was washed, and after the cells were incubated for 3 days, the cell proliferation suppressive activity was evaluated by a method similar to that of Test Example 10.
By a similar operation, the cell proliferation suppressive activity was evaluated using EHC, which is the active ingredient of Synthesis Example 6, from the light absorbance of the compound.

[4] = test system: human ovarian cancer SHIN-3 tumors; assay: Test on antitumor effect of Synthesis Example 1, SHIN-3 tumors; format: in vivo; conditions: 5 mg/kg i.v., at an interval of 7 days
Description: By an operation similar to that of Test Example 12, human ovarian cancer SHIN-3 tumors were subcutaneously transplanted into SCID mice, and tumor engraftment was confirmed.
After the administration, the major axis (L) and the minor axis (W) of a tumor were measured using calipers at an interval of 2 to 3 days, the tumor volume was calculated by the formula: (L×W^2)/2, and the tumor volume change rate from the administration initiation day was determined.

[5] = Homo sapiens, 10 μM, read-out: Cell proliferation inhibitory activity

In the case of `CCc1c2c(nc3ccc(O)cc13)-c1cc3c(c(=O)n1C2)COC(=O)[C@]3(O)CC` [EHC, 7-ethyl-10-hydroxycamptothecin, reference compound], the “Cell proliferation inhibitory activity” value ([1]; 0.01 μM) is reported as 26%, the “Cell proliferation inhibitory activity” value ([2]; 0.01 μM) is reported as 27.7% and the “Effect of GGT inhibitor on cell proliferation suppressive activity” value ([3]; compound 0.0001 to 1 μM) is reported as “did not affect the cell proliferation suppressive activity”.

For `COc1cccc2c1C(=O)c1c(O)c3c(c(O)c1C2=O)C[C@@](O)(C(=O)CO)C[C@@H]3O[C@H]1C[C@H](N)[C@H](O)[C@H](C)O1` [doxorubicin hydrochloride, reference compound], the “Toxicity (death of mice)” value [4] was “the mice died after the second administration due to toxicity”.

`COc1cccc2c1C(=O)c1c(O)c3c(c(O)c1C2=O)C[C@@](O)(C(=O)CO)C[C@@H]3O[C@H]1C[C@H](N)[C@H](O)[C@H](C)O1` [doxorubicin, reference compound] was tested, and the inhibition at 10 µM [1, 5] was 77%, the inhibition at 10 µM [2, 5] was 77% and the “Effect of GGT inhibitor on cell proliferation suppressive activity” value ([3]; compound 0.039 to 10 μM) was “did not affect the cell proliferation suppressive activity”.
